Experimental data from US20110059885A1, “TREATMENT OF DISEASES AND CONDITIONS MEDIATED BY EICOSANOIDS” (Natural Environment Research Council, priority 2008, published 2011).

Assays:
[1] = system: immune complex induced lung injury; assay: Immune complex induced lung disease (intranasal anti-Ova antibody); format: in vivo, mouse
Experimental: Recombinant OmCI was given at 0, 50, 100 and 250 μg intravenously together with 300 μg Ova containing 0.3% Evans blue (EB). […] MK886 is a leukotriene synthesis inhibitor. MK886 was administered with 300 μg Ova containing 0.3% Evans blue (EB) as a positive control.

[2] = system: LTB4 induced skin reaction; assay: Local skin reaction induced by topical application of LTB4; format: in vivo, human
Experimental: Reactions appear after 12 hours and peak at 24-48 hours.
The solutions were then applied to the flexor surface of the forearm and air dried. […] The deposits were occluded under a chamber which was removed after 6 hours. Skin reactions were observed from 12-96 hours.
Solutions were incubated for 10 minutes at room temperature then applied to the flexor surface of the forearm and air dried. […] The deposits were occluded under a chamber which was removed after 6 hours. Skin reactions were observed from 12-96 hours.

[3] = Competitive enzyme immunoassay (EIA) for 12(S)-HETE binding; details: for proportion of 12(S)-HETE bound: 634 molar excess OmCI to 12(S)-HETE, 12500 pg/mL 12(S)-HETE (FIG. 5)
Experimental: Competitive enzyme immunoassays (EIAs) from Assay Designs Inc. are available for the quantification of a number of the eicosanoids. One such EIA kit uses a polyclonal antibody to 12(S)-HETE to bind 12(S)-HETE labelled with alkaline phosphatase and competing unlabelled 12(S)-HETE in the sample or standards of known concentration. After simultaneous incubation at room temperature and capture of the antibody on the plate, the excess reagents are washed away, the substrate added and reaction measured by microplate reader. The higher the concentration of 12(S)-HETE in sample or standard the lower the absorbance reading, because the unlabelled fatty acid competes for binding with the alkaline phosphatase labelled molecule.
12(S)-HETE EIA Kit was from Assay Designs (Cat. No. 900-050). OmCI stocks used were expressed either in yeast (yOmCI) or bacteria (bOmCI). Both stocks were ≧98% pure, 8.3 mg/mL in phosphate buffered saline pH 7.2 (PBS). The negative control tick histamine binding protein RaHBP2, which is also a lipocalin (Paesen et al., 1999), was expressed in bacteria and was also ≧98% pure, 8.3 mg/mL in PBS. 12(S)-HETE standard was diluted to 50000, 12500, 3125, 781, 195 pg/mL in the assay buffer supplied with the kit. 100 μl of the 12500, 3125 and 0 pg/mL solutions were mixed with ≦9 μl of phosphate buffered saline pH 7.2 (PBS) or solutions of OmCI or RaHBP2 in PBS. The mixtures were incubated at room temperature for 20 minutes then used in the 12(S)-HETE immunoassay in accordance with the manufacturers instructions. The absorbance readings of the treated samples were compared with a standard curve to estimate the concentration of 12(S)-HETE available in solution for binding by the anti-12(S)-HETE polyclonal antibody.
Similar methods to those described in Example 1 were used.

[4] = LTB4 EIA using only LTB4-AP conjugate as ligand; format: binding; details: for comparison of LTB4-AP binding by yOmCI and bOmCI: equivalent concentrations (FIG. 9)
Experimental: (§1) 100 μl of the standard solutions were mixed with ≦90 of PBS or diluted stock solutions of OmCI or RaHBP2. The mixtures were incubated at room temperature for 20 minutes then used in the immunoassays in accordance with the manufacturers instructions. The absorbance readings of the treated samples were compared with a standard curve to estimate the concentration of eicosanoids available in solution for binding by the anti-eicosanoid polyclonal antibodies.

[5] = LTB4 binding by UV absorbance after ultrafiltration
Experimental: The mixture was concentrated to 200 μl in Vivaspin (Sartorious) 5 kDa cut off ultrafiltration device. The retentate was washed with a further 30 mL of PBS and concentrated to 200 μl. In parallel, the same amount (4.5 mg) of bOmCI was incubated with 1.8 ml ultrapure ethanol in 39 mL PBS, then concentrated and washed as described above. The final volume of the concentrated proteins was 200 μl. UV absorption spectra of the proteins were examined using a Nanodrop ND-1000 Spectrophotometer.

Human BLT2 = target: T1, Human BLT2 (Homo sapiens, UniProt Q9NPC1); details: cited from earlier work
T1 sequence (Q9NPC1 1-358): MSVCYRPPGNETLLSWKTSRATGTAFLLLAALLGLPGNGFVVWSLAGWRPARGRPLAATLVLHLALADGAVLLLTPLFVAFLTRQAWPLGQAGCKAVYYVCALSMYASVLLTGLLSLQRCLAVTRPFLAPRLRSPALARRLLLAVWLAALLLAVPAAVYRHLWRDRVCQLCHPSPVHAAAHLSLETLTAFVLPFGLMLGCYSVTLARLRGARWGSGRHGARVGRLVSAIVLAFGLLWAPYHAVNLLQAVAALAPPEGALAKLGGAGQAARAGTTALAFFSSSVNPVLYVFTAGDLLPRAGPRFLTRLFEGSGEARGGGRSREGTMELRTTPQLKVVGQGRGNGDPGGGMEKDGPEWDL

[6] = Competitive EIA for thromboxane B2 binding
Experimental: as §1

[7] = Competitive EIA for LTB4 with unlabelled LTB4; format: binding; details: 750 pg/mL LTB4 added (FIG. 7)
Experimental: as §1

[8] = Competitive EIA for cysteinyl leukotriene binding; details: data not shown
Experimental: as §1

[9] = 50 μg intravenous (legend of FIG. 16)
[10] = 100 μg intravenously 15 min prior to intranasal OVA antibody
[11] = Example 5, bOmCI 33×, 16×, 7×, 2× or ovalbumin 15×, 3×, 1× molar excess, forearm (FIG. 12)
[12] = AP conjugate only, data not shown

OmCI preloaded with LTB4: bOmCI with LTB4 loaded into the binding pocket (example 6)
inhibitory effect on immune complex induced disease after saturation of the LTB4 binding site ([1]; OmCI preloaded with LTB4 (FIG. 16)): attenuated the inhibitory effect of OmCI although it did not abrogate the response | skin reaction induced by 100 ng LTB4 ([2]; Example 8, 4:1 molar ratio, preloaded protein): did not prevent the skin reaction

yOmCI: yeast expressed OmCI
proportion of 12(S)-HETE bound [3]: roughly 50% | comparison of LTB4-AP binding by yOmCI and bOmCI [4]: fairly similar

OmCI: soft tick derived complement (C) inhibitor of Ornithodoros moubata, SEQ ID NO: 2 / 3; binds C5 and LTB4
LTB4 binding stoichiometry and affinity ([5]; conclusion from examples 6 and 7): binds to a single molecule of LTB4 with high affinity | dose dependence of effect ([1]; 0, 50, 100 and 250 μg intravenously, data not shown): dose dependent | neutrophil recruitment in the lung [1, 9]: reduces neutrophil recruitment in the lung | vascular permeability and protein exudation [1, 9]: decreases vascular permeability and protein exudation | neutrophil recruitment in the lung [1, 10]: reduced neutrophil recruitment in the lung | pulmonary microvascular damage and protein exudations in the bronchoalveolar space [1, 10]: reduced protein exudations | skin reaction induced by 100 ng LTB4 [2, 11]: completely ablated | skin reaction induced by 100 ng LTB4 ([2]; Example 8, 4:1 to 1:1 molar ratio (FIG. 15)): ablated the skin reaction | lesion formation compared to LTB4 alone ([2]; Example 8, molar ratios 0.5:1 and less): no effect on lesion formation

CCCCC/C=C\C[C@@H](O)/C=C/C=C/C=C\[C@@H](O)CCCC(=O)O [LTB4, leukotriene B4]
lower affinity of BLT2 than BLT1 for LTB4 (Human BLT2): 20 fold

bOmCI: bacterial expressed OmCI
binding of TXB2 ([6]; 3333 pg/mL TXB2 (FIG. 6)): does not appear to bind | direct binding of TXB2-AP conjugate [6, 12]: not bound directly | proportion of 12(S)-HETE bound [3]: 97% | amount of 12(S)-HETE available in solution for antibody binding ([3]; 20 min preincubation with 12500 pg/mL 12(S)-HETE, 41.2 μg protein (FIG. 2)): decreases the amount of 12(S)-HETE available in solution | direct binding of 12(S)-HETE-AP conjugate [3, 12]: not bound directly | effect of prolonged incubation on proportion of 12(S)-HETE bound ([3]; overnight at room temperature (FIG. 4)): does not increase the proportion of 12(S)-HETE bound | estimated concentration of LTB4 in solution [7]: 10000 pg/mL | LTB4 bound from solution ([5]; 1:1 molar ratio OmCI:LTB4, flow through of ultrafiltration (FIG. 13A)): all the LTB4 added to initial mixture was bound | direct binding of cys-LK-AP conjugate ([8]; AP conjugate only): not bound directly | binding of Cys-LKs [8]: does not appear to bind | competition of excess 12(S)-HETE with LTB4-AP binding ([4]; 8.24 μg bOmCI (FIG. 10)): does not outcompete | amount of protein that binds approximately 50% of the LTB4-AP ([4]; FIG. 8): 0.33 µg | excess of protein needed to bind 50% of the LTB4-AP ([4]; calculated assuming 100% conjugation efficiency and IC50=1:1 binding): 1200 × | binding to LTB4-AP ([4]; dilution series, 50 μL LTB4-AP, no unlabelled LTB4 (FIG. 8)): dose dependent binding | comparison of LTB4-AP binding by yOmCI and bOmCI [4]: fairly similar

Ovalbumin: negative control protein ovalbumin (Mr 45 kDa) [reference compound]
skin reaction induced by 100 ng LTB4 [2, 11]: no effect on lesion formation | lesion formation ([2]; Example 8, negative control protein): no inhibitory effect on lesion formation

CC(C)c1ccc2c(c1)c(SC(C)(C)C)c(CC(C)(C)C(=O)O)n2Cc1ccc(Cl)cc1 [MK886, reference compound]
microvascular damage and inflammation ([1]; positive control (FIG. 16)): reduced dramatically
